Where a name gives a salt, the structure may show the parent alone.
Legend:
colon cancer xenograft = colon cancer xenograft mice model, 0.25 mg/kg daily dosing ref 18, 19; cited from earlier work
EC68 cells = test: Cell viability assay; assay type: cell-based, human; conditions: Homo sapiens, Pancreatic cancer cell, 48 h
EC46 cells = test: Cell viability assay; assay type: cell-based, human; conditions: Homo sapiens, Pancreatic cancer cell, 48 h
PANC-1 cells = test: Cell viability assay; assay type: cell-based, human; conditions: Homo sapiens, PANC-1, 48 h

Compound	tumor growth (colon cancer xenograft)	IC50 (EC68 cells) [µM]	IC50 (EC46 cells) [µM]	IC50 (PANC-1 cells) [µM]
CC[C@H](C)[C@H]1C(=O)N2CCC[C@@H]2C(=O)O[C@H](C(C)(C)C)C[C@@H](C)C[C@H](O)C(C)(C)C2=N[C@@H](CCC(=O)N[C@@H](Cc3ccc(OC)cc3)C(=O)N(C)[C@@H](C)C(=O)N1C)CS2 [Apratoxin S8, apratoxin S8]	significantly retarded tumor growth	–	–	–
C#Cc1cccc(Nc2ncnc3cc(OCCOC)c(OCCOC)cc23)c1 [erlotinib hydrochloride, reference compound]	–	8.96	2.41	13.1
